Each structure is given as a SMILES string.

EC50 data for 28 compounds are collected here from patent publication US11970479B2, “3-(1H-pyrazol-4-yl)pyridine allosteric modulators of the M4 muscarinic acetylcholine receptor” (Merck Sharp & Dohme LLC, priority 2018, dated 2024).

The experiment addresses T1, human M4 muscarinic acetylcholine receptor (Homo sapiens, UniProt P08173).
T1 construct: expressed in transfected cells
T1 sequence (P08173 1-479): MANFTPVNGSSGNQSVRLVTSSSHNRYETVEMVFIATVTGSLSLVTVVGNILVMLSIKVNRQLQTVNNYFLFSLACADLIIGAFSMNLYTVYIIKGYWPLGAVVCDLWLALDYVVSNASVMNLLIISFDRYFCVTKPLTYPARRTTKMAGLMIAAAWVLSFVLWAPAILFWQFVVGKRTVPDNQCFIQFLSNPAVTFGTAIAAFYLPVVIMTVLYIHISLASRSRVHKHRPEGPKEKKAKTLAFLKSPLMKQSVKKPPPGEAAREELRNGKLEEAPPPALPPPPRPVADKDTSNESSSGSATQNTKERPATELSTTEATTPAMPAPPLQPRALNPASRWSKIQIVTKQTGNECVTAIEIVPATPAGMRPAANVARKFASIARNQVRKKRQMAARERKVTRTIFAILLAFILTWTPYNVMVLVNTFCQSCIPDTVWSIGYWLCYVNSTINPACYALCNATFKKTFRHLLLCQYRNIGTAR
As to the kind of experiment: human FLIPR-based M4 PAM assay (CHO-K1 cells with human M4 receptor and Gαqi5, calcium dye fluorescence, EC20 acetylcholine). In kind it is cell-based. The note with it: inflection point (IP) of the dose response curve, human M4 receptor/Gαqi5, acetylcholine at 20% of maximum response, read-out: M4PAM Hu IP. The procedure: (§1) In a typical experiment the M4 muscarinic acetylcholine receptor modulating activity of the compounds of the present invention was determined in accordance with the following experimental method. CHO-K1 cells stably transfected with human M4 receptor and chimeric G-protein Gαqi5 (Coward P, et al., Analytical Biochemistry, 270:242-248 (1999)) are thawed from liquid N2 storage, resuspended in growth medium, plated in black, clear bottom 384 well plates, and incubated 16-20 hours at 37° C., 5% CO2. On the day of assay, growth medium is removed, the cells are washed 2 times with wash buffer, and cells are incubated in dye loading buffer at 37° C., 5% CO2 for ˜1 hour. Following dye loading the cell plates are placed in a FLIPR Tetra instrument and while monitoring dye fluorescence (excitation […]), 10 uL of test substance at increasing concentrations is added, and fluorescence values are recorded for 4 min. Next, 10 uL of acetylcholine is added (final concentration calculated so as to achieve 20% of the maximum acetycholine response), and the fluorescence reading is continued for 3.5 min. In some cases, a third addition of acetylcholine (final concentration calculated to achieve 70% of the maximal acetylcholine response) is performed. The resulting dose response curves are fit to a 4 parameter logistic equation and the final result is determined as the inflection point (IP) of the curve
as §1, with “CHO-K1” for “In a typical experiment the M4 muscarinic acetylcholine receptor modulating activity of the compounds of the present invention was determined in accordance with the following experimental method. CHO-K1”, “Gαqi5” for “Gαqi5 (Coward P, et al., Analytical Biochemistry, 270:242-248 (1999))”, “performed.” for “performed. The resulting dose response curves are fit to a 4 parameter logistic equation and the final result is determined as the inflection point (IP) of the curve”
Turning to `COc1cc2ccc(-c3nc(C)ccc3-c3cnn(CC4(C)CCOC4)c3)cc2nn1` (single isomer, unassigned) [Example 98, 3-methoxy-7-(6-methyl-3-{1-[(3-methyltetrahydrofuran-3-yl)methyl]-1H-pyrazol-4-yl}pyridin-2-yl)cinnoline], the EC50 amounted to 57 nM.

Turning to `COc1cc2ccc(-c3nc(C)ccc3-c3cnn(CC4(C)CCOC4)c3)cc2nn1` (single isomer, unassigned) [Example 99, 3-methoxy-7-(6-methyl-3-{1-[(3-methyltetrahydrofuran-3-yl)methyl]-1H-pyrazol-4-yl}pyridin-2-yl)cinnoline], the EC50 amounted to 169 nM.

Take `COc1cc2ccc(-c3ncccc3-c3cnn(CC4(C)CCCCC4)c3)cc2nn1` [Example 1, 3-methoxy-7-(3-{1-[(1-methylcyclohexyl)methyl]-1H-pyrazol-4-yl}pyridin-2-yl)cinnoline]: the EC50 was 22 nM.

On to `Cc1ccc(-c2cnn(CCC(C)(C)F)c2)c(-c2ccc3cccnc3c2)n1` [Example 2, 7-(3-(1-(3-fluoro-3-methylbutyl)-1H-pyrazol-4-yl)-6-methylpyridin-2-yl)quinoline], for which the EC50 was found to be 70 nM.

With `COc1cc2ccc(-c3nc(C)ccc3-c3cnn(CCC(C)(C)F)c3)cc2nn1` [Example 3, 7-{3-[1-(3-fluoro-3-methylbutyl)-1H-pyrazol-4-yl]-6-methylpyridin-2-yl}-3-methoxycinnoline], the EC50 was found to be 57 nM.

Consider `Cc1ccc(-c2cnn(Cc3ccccc3)c2)c(-c2ccc3cccnc3c2)n1` [Example 4, 7-[3-(1-benzyl-1H-pyrazol-4-yl)-6-methylpyridin-2-yl]quinoline], for which the EC50 was found to be 91 nM.

As to `COc1cc2ccc(-c3nc(C)ccc3-c3cnn(Cc4ccccc4)c3)cc2nn1` [Example 5, 7-[3-(1-benzyl-1H-pyrazol-4-yl)-6-methylpyridin-2-yl]-3-methoxycinnoline], the EC50 is 93 nM.

`Cc1ccc(-c2cnn(CC(C)(C)C)c2)c(-c2ccc3cccnc3c2)n1` [Example 6, 7-{3-[1-(2,2-dimethylpropyl)-1H-pyrazol-4-yl]-6-methylpyridin-2-yl}quinoline]: the EC50 stood at 19 nM.

`Cc1ccc(-c2cnn(CC3(C)CCCCC3)c2)c(-c2ccc3cc(C(F)(F)F)cnc3c2)n1` [Example 7, 7-(6-methyl-3-{1-[(1-methylcyclohexyl)methyl]-1H-pyrazol-4-yl}pyridin-2-yl)-3-(trifluoromethyl)quinoline]: the EC50 came out at 137 nM.

With `COc1cc2ccc(-c3nc(C)ccc3-c3cnn(CC4CCC4)c3)cc2nn1` [Example 8, 7-{3-[1-(cyclobutylmethyl)-1H-pyrazol-4-yl]-6-methylpyridin-2-yl}-3-methoxycinnoline], the EC50 was found to be 72 nM.

Consider `Cc1ccc(-c2cnn(CC34CC(C3)C4)c2)c(-c2ccc3cccnc3c2)n1` [Example 9, 7-{3-[1-(bicyclo[1.1.1]pent-1-ylmethyl)-1H-pyrazol-4-yl]-6-methylpyridin-2-yl}quinoline], for which the EC50 came out at 21 nM.

For `COc1cc2ccc(-c3nc(C)ccc3-c3cnn(CC45CC(C4)C5)c3)cc2nn1` [Example 10, 7-{3-[1-(bicyclo[1.1.1]pent-1-ylmethyl)-1H-pyrazol-4-yl]-6-methylpyridin-2-yl}-3-methoxycinnoline], the EC50 came to 20 nM.

Regarding `Cc1ccc(-c2cnn(CCC(C)C(F)(F)F)c2)c(-c2ccc3cccnc3c2)n1` (stereo not shown) [Example 11, 7-{6-methyl-3-[1-(4,4,4-trifluoro-3-methylbutyl)-1H-pyrazol-4-yl]pyridin-2-yl}quinoline], the EC50 is 89 nM.

`Cc1ccc(-c2cnn(CC34CC5CC(CC(C5)C3)C4)c2)c(-c2ccc3cccnc3c2)n1` [Example 12, 7-(3-(1-(((3r,5r,7r)-adamantan-1-yl)methyl)-1H-pyrazol-4-yl)-6-methylpyridin-2-yl)quinoline]: the EC50 worked out at 80 nM.

In the case of `COc1cc2ccc(-c3nc(C)ccc3-c3cnn(CC45CC6CC(CC(C6)C4)C5)c3)cc2nn1` [Example 13, 7-(3-(1-(((3r,5r,7r)-adamantan-1-yl)methyl)-1H-pyrazol-4-yl)-6-methylpyridin-2-yl)-3-methoxycinnoline], the EC50 came to 37 nM.

Turning to `Cc1ccc(-c2cnn(CC34CCC(CC3)CC4)c2)c(-c2ccc3cccnc3c2)n1` [Example 14, 7-{3-[1-(bicyclo[2.2.2]oct-1-ylmethyl)-1H-pyrazol-4-yl]-6-methylpyridin-2-yl}quinoline], the EC50 came to 20 nM.

Regarding `COc1cc2ccc(-c3nc(C)ccc3-c3cnn(CC45CCC(CC4)CC5)c3)cc2nn1` [Example 15, 7-{3-[1-(bicyclo[2.2.2]oct-1-ylmethyl)-1H-pyrazol-4-yl]-6-methylpyridin-2-yl}-3-methoxycinnoline], the EC50 amounted to 14 nM.

Consider `Cc1ccc(-c2cnn(CC3CCC(F)(F)CC3)c2)c(-c2ccc3cccnc3c2)n1` [Example 16, 7-(3-{1-[(4,4-difluorocyclohexyl)methyl]-1H-pyrazol-4-yl}-6-methylpyridin-2-yl)quinoline], for which the EC50 worked out at 124 nM.

Take `COc1cc2ccc(-c3nc(C)ccc3-c3cnn(CC4CCC(F)(F)CC4)c3)cc2nn1` [Example 17, 7-(3-{1-[(4,4-difluorocyclohexyl)methyl]-1H-pyrazol-4-yl}-6-methylpyridin-2-yl)-3-methoxycinnoline]: the EC50 was 56 nM.

Take `Cc1ccc(-c2cnn(CC3CCC(F)CC3)c2)c(-c2ccc3cccnc3c2)n1` (stereo not shown) [Example 18, 7-(3-{1-[(4-fluorocyclohexyl)methyl]-1H-pyrazol-4-yl}-6-methylpyridin-2-yl)quinoline]: the EC50 came to 88 nM.

Turning to `COc1cc2ccc(-c3nc(C)ccc3-c3cnn(CC4CCC(F)CC4)c3)cc2nn1` (stereo not shown) [Example 19, 7-(3-{1-[(4-fluorocyclohexyl)methyl]-1H-pyrazol-4-yl}-6-methylpyridin-2-yl)-3-methoxycinnoline], the EC50 worked out at 43 nM.

On to `Cc1ccc(-c2cnn(Cc3ccccc3F)c2)c(-c2ccc3cccnc3c2)n1` [Example 20, 7-{3-[1-(2-fluorobenzyl)-1H-pyrazol-4-yl]-6-methylpyridin-2-yl}quinoline], for which the EC50 turned out to be 92 nM.

With `COc1cc2ccc(-c3nc(C)ccc3-c3cnn(Cc4ccccc4F)c3)cc2nn1` [Example 21, 7-{3-[1-(2-fluorobenzyl)-1H-pyrazol-4-yl]-6-methylpyridin-2-yl}-3-methoxycinnoline], the EC50 stood at 62 nM.

As for `COc1cc2ccc(-c3nc(C)ccc3-c3cnn(CC4(C)CCC(F)(F)CC4)c3)cc2nn1` [Example 22, 7-(3-{1-[(4,4-difluoro-1-methylcyclohexyl)methyl]-1H-pyrazol-4-yl}-6-methylpyridin-2-yl)-3-methoxycinnoline], the EC50 came out at 16 nM.

As to `COc1cc2ccc(-c3nc(C)ccc3-c3cnn(CC4(C)CCCO4)c3)cc2nn1` (stereo not shown) [Example 23, 3-methoxy-7-(6-methyl-3-{1-[(2-methyltetrahydrofuran-2-yl)methyl]-1H-pyrazol-4-yl}pyridin-2-yl)cinnoline], the EC50 is 111 nM.

Regarding `COc1cc2ccc(-c3nc(C)ccc3-c3cnn(CC4(C(F)(F)F)CCC4)c3)cc2nn1` [Example 24, 3-methoxy-7-[6-methyl-3-(1-{[1-(trifluoromethyl)cyclobutyl]methyl}-1H-pyrazol-4-yl)pyridin-2-yl]cinnoline], the EC50 was determined as 151 nM.

Turning to `COc1cc2ccc(-c3nc(C)ccc3-c3cnn(CC4(C)CCC4)c3)cc2nn1` [Example 25, 3-methoxy-7-(6-methyl-3-{1-[(1-methylcyclobutyl)methyl]-1H-pyrazol-4-yl}pyridin-2-yl)cinnoline], the EC50 stood at 46 nM.

As to `COc1cc2ccc(-c3nc(C)ccc3-c3cnn(CC4(C)CC4)c3)cc2nn1` [Example 26, 3-methoxy-7-(6-methyl-3-{1-[(1-methylcyclopropyl)methyl]-1H-pyrazol-4-yl}pyridin-2-yl)cinnoline], the EC50 amounted to 70 nM.
